The subject of test [1] is CoREST complex subunits RCOR3 and RCOR1. The experiment in a line: HDAC complex selectivity from competition pulldown. In kind it is binding, human.
Test [2] relates to HDAC1 and HDAC2. The experiment in a line: binding kinetics pulldown experiment. More on the design: species or system human. As to conditions: 4 °C, 30 μM.
Test [3] has as its target HDACs or other metalloproteins. Kind of test: chemoproteomic competition pulldown assay, whole target panel. As to conditions: for affinities (Kd^app) in chemoproteomic assay: doses up to 3000 μM.
The target of test [4] is T1, recombinant MBLAC2 (Homo sapiens, UniProt Q68D91).
T1 sequence (Q68D91 1-279): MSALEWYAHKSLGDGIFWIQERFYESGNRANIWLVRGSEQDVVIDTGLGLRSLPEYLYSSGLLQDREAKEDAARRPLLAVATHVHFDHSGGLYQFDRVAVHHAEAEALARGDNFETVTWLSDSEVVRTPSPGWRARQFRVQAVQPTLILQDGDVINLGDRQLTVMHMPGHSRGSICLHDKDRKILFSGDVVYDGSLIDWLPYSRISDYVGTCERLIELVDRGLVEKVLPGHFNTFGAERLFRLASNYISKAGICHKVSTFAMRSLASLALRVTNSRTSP
The experiment in a line: Palmitoyl-CoA hydrolysis assay. It is filed as biochemical. The settings on record: for EC50: assay threshold 10 nM.

The test system of test [5] is HDAC6. The settings on record: reported values; cited from earlier work.
For test [6], the target named is T2, HDAC8 (Homo sapiens, UniProt Q9BY41).
T2 sequence (Q9BY41 1-377): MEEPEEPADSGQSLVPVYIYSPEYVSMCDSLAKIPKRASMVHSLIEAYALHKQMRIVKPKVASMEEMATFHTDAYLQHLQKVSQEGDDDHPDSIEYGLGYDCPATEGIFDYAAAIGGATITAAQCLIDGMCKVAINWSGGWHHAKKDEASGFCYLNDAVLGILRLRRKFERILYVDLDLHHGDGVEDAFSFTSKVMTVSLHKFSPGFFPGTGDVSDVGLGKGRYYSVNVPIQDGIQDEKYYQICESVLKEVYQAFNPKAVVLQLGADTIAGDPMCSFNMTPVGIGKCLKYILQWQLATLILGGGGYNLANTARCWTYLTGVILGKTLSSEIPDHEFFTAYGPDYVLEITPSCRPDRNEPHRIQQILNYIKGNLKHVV
Kind of test: HDAC-Glo enzyme activity assay. In kind it is biochemical.

Test [7] deals with class IIa HDACs. Kind of test: chemoproteomic competition pulldown assay, class IIa HDACs. It is filed as binding, human.
Test [8] concerns the target HDACs 1–3. Kind of test: chemoproteomic competition pulldown assay, HDACs 1–3. It is filed as binding, human.
Test [9] concerns SW620 cells, HDAC6 substrate alpha-tubulin. Kind of test: Western blot against acetylated alpha-Tubulin. The settings on record: 6 h, vs DMSO control. It is filed as cell-based, human. In general terms: In western blotting, separated proteins are transferred to a membrane and probed.
Setting [10] is: EC50 of MBLAC2 hydrolase activity inhibition.

Read-outs that look alike come from different tables or passages of the source.

In the case of `O=C(/C=C/c1ccc(CN(CCO)CCc2c[nH]c3ccccc23)cc1)NO` [Dacinostat], the “lower EC50 value of RCOR3 compared to RCOR1 and other CoREST members” value in [1] is on record as over 10 fold.

Turning to `Nc1ccccc1NC(=O)c1ccc(CNC(=O)OCc2cccnc2)cc1` [Entinostat], the “time until target HDACs maximally competed” value in [2] is “more than 2 h”.

As to `C/C=C1\NC(=O)[C@H]2CSSCC/C=C/[C@H](CC(=O)N[C@H](C(C)C)C(=O)N2)OC(=O)[C@H](C(C)C)NC1=O` [Romidepsin], the “lower EC50 value of RCOR3 compared to RCOR1 and other CoREST members” value in [1] is recorded as over 10 fold.

As for `CCCC(CCC)C(=O)O` [Valproic Acid], the “affinities (Kd^app) in chemoproteomic assay” value in [3] is “three-digit micromolar”.

Consider `Nc1cc(F)ccc1NC(=O)c1ccc(CNC(=O)/C=C/c2cccnc2)cc1` [Tucidinostat], for which, in [4] (300 nM drug, 30 nM MBLAC2), the “MBLAC2 enzyme activity, single dose screen” value is “little if any effect on enzyme activity”. Moreover, in [4] (at a 1,000-fold higher concentration), the “effect on MBLAC2 activity” value is listed as “did not affect MBLAC2 activity”.

In the case of `CCCCOc1ccc(CC(=O)NO)cc1` [Bufexamac], the “HDAC binding in chemoproteomic assay” value in test [3] is listed as “did not bind HDACs”.

Regarding `CCCCN(Cc1ccc(C(=O)NO)cc1)C(=O)Nc1ccccc1` [Nexturastat A], the “pEC50 HDAC6” value in test [5] is 8.3.

Regarding `O=C(O)CCCc1ccccc1` [Phenylbutanoic Acid], in [3], the “affinities (Kd^app) in chemoproteomic assay” value was “three-digit micromolar”.

Regarding `O=C(CCCCCCC(=O)Nc1ccccc1)NO` [Vorinostat], the “activity against HDAC8” value in test [6] is given as “very low activity”.

On to `Cc1cc(Cl)ccc1OCCCC(=O)NO` [Droxinostat], for which the “HDAC binding in chemoproteomic assay” value in test [3] is on record as “did not bind HDACs”.

On to `CN(C)c1ccc(C(=O)NCCCCCCC(=O)NO)cc1` [M344], for which the “lower EC50 value of RCOR3 compared to RCOR1 and other CoREST members” value in test [1] is reported as over 10 fold.

As for `Cc1cc(C)cc(C(=O)NOCCCCCC(=O)NO)c1` [LMK235], the “class IIa target engagement” value in test [7] is “no class IIa target engagement at all”.

In the case of `O=C(CCCCCCNC(=O)c1cnc(N(c2ccccc2)c2ccccc2)nc1)NO` [Ricolinostat], the “pKd^app range for HDACs 1–3” value in [8] is recorded as 4.9–6.0.

For the molecule `CN(C)Cc1c(C(=O)NCCOc2ccc(C(=O)NO)cc2)oc2ccccc12` [Abexinostat], the EC50 in test [4] (setting [10]) is under 10 nM.

Consider `Cn1c(/C=C/C(=O)NO)ccc1/C=C/C(=O)c1cccc(F)c1` [MC1568], for which, in test [7], the “class IIa target engagement” value was “no class IIa target engagement at all”.

In the case of `CCCCc1nc2cc(/C=C/C(=O)NO)ccc2n1CCN(CC)CC` [Pracinostat], the EC50 in test [4] (setting [10]) was under 10 nM.

Regarding `CC(C)[C@H](C(=O)Nc1ccc(C(=O)NO)cc1)c1ccccc1` [AR-42], the EC50 in [4] (read-out: EC50 of MBLAC2 hydrolase activity inhibition) is under 10 nM.

For `O=C(NO)c1cnc(NC2(c3ccccc3)CC2)nc1` [ACY-738], the “acetylation of alpha-Tubulin Lys40” value in test [9] was “significant overacetylation”.

The EC50 is the concentration needed to bring the measured effect to its halfway point.
